We go through twelve substances from the OligoGym collection.

Where “and” joins values, the source holds several entries; their conditions need not be identical. Equal entries are not always repeated. HELM strings list units from the 5' end as sugar, base in round brackets, then linkage (d deoxyribose, r ribose, m 2'-O-methyl, p phosphodiester). Methylation of C is not given here. [moe] = 2'-O-(2-methoxyethyl) (MOE); [cEt] = constrained ethyl (cEt); [sp] = phosphorothioate linkage

The data set deals with HBV. To be noted: ASO.

Regarding “RNA1{[moe](T)[sp].[moe](T)[sp].d(T)[sp].d(A)[sp].d(T)[sp].d(G)[sp].d(C)[sp].d(C)[sp].d(T)[sp].d(A)[sp].d(C)[sp].[moe](A)[sp].[moe](G)[sp].[moe](C)[sp].[moe](C)[sp].[moe](T)[sp].[moe](C)}$$$$V2.0”, the target mRNA inhibition (HepG2, 0.07 µM) was 64% and 54%. The same measure, in the same setting: for “RNA1{[moe](G)[sp].[moe](G)[sp].[moe](T)[sp].[moe](G)[sp].d(A)[sp].d(A)[sp].d(G)[sp].d(C)[sp].d(G)[sp].d(A)[sp].d(A)[sp].d(G)[sp].d(T)[sp].[moe](G)[sp].[moe](C)[sp].[moe](A)}$$$$V2.0” the value was 55% and 59%.

“RNA1{[moe](C)[sp].[cEt](A)[sp].[cEt](A)[sp].d(A)[sp].d(T)[sp].d(G)[sp].d(G)[sp].d(C)[sp].d(A)[sp].d(C)[sp].d(T)[sp].d(A)[sp].d(G)[sp].[cEt](T)[sp].[cEt](A)[sp].[moe](A)}$$$$V2.0”: the target mRNA inhibition (HepG2, 0.07 µM) was 55% and 64%. “RNA1{[moe](A)[sp].[moe](T)[sp].[moe](T)[sp].d(T)[sp].d(A)[sp].d(T)[sp].d(G)[sp].d(C)[sp].d(C)[sp].d(T)[sp].d(A)[sp].d(C)[sp].[moe](A)[sp].[moe](G)[sp].[moe](C)[sp].[moe](C)[sp].[moe](T)}$$$$V2.0”: under “HepG2, 0.07 µM”, the target mRNA inhibition is 58% and 50%. On the same count and under the same terms, as for “RNA1{[moe](A)[sp].[moe](G)[sp].[moe](G)[sp].d(T)[sp].d(G)[sp].d(A)[sp].d(A)[sp].d(G)[sp].d(C)[sp].d(G)[sp].d(A)[sp].d(A)[sp].d(G)[sp].[cEt](T)[sp].[cEt](G)[sp].[cEt](C)}$$$$V2.0”, the figure is 73% and 68%; as for “RNA1{[moe](C)[sp].[moe](C)[sp].[moe](A)[sp].d(C)[sp].d(T)[sp].d(G)[sp].d(A)[sp].d(A)[sp].d(C)[sp].d(A)[sp].d(A)[sp].d(A)[sp].[moe](T)[sp].[moe](G)[sp].[moe](G)[sp].[moe](C)}$$$$V2.0”, 69%. Regarding “RNA1{[moe](C)[sp].[cEt](A)[sp].d(C)[sp].d(T)[sp].d(G)[sp].d(A)[sp].d(A)[sp].d(C)[sp].d(A)[sp].d(A)[sp].d(A)[sp].d(T)[sp].[cEt](G)[sp].[moe](G)[sp].[cEt](C)[sp].[moe](A)}$$$$V2.0”, the target mRNA inhibition (HepG2, 0.0092593 µM) stood at 5%; the target mRNA inhibition (HepG2, 0.0277778 µM) is 26%; the target mRNA inhibition (HepG2, 0.0833333 µM) stood at 64%; the target mRNA inhibition (HepG2, 0.25 µM) was found to be 82%. In the case of “RNA1{[moe](G)[sp].[moe](A)[sp].[moe](G)[sp].d(A)[sp].d(G)[sp].d(A)[sp].d(A)[sp].d(G)[sp].d(T)[sp].d(C)[sp].d(C)[sp].d(A)[sp].d(C)[sp].[cEt](C)[sp].[cEt](A)[sp].[cEt](C)}$$$$V2.0”, where the note is “HepG2, 0.07 µM”, the target mRNA inhibition is 38% and 23%. Still for that read-out and setting: as for “RNA1{[moe](C)[sp].[moe](G)[sp].[moe](C)[sp].[moe](A)[sp].d(G)[sp].d(T)[sp].d(A)[sp].d(T)[sp].d(G)[sp].d(G)[sp].d(A)[sp].d(T)[sp].d(C)[sp].[moe](G)[sp].[moe](G)[sp].[moe](C)}$$$$V2.0”, the figure is 80% and 68%; as for “RNA1{[moe](C)[sp].[moe](G)[sp].[moe](C)[sp].[moe](A)[sp].d(G)[sp].d(T)[sp].d(A)[sp].d(T)[sp].d(G)[sp].d(G)[sp].d(A)[sp].d(T)[sp].d(C)[sp].[moe](G)[sp].[moe](G)[sp].[moe](C)[sp].[moe](A)}$$$$V2.0”, 81% and 67%; as for “RNA1{[moe](G)[sp].[cEt](G)[sp].[cEt](C)[sp].d(A)[sp].d(G)[sp].d(A)[sp].d(G)[sp].d(G)[sp].d(T)[sp].d(G)[sp].d(A)[sp].d(A)[sp].d(A)[sp].[cEt](A)[sp].[cEt](A)[sp].[moe](G)}$$$$V2.0”, 50% and 49%. Take “RNA1{[moe](A)[sp].[cEt](A)[sp].d(T)[sp].d(T)[sp].d(T)[sp].d(A)[sp].d(T)[sp].d(G)[sp].d(C)[sp].d(C)[sp].d(T)[sp].d(A)[sp].[cEt](C)[sp].[moe](A)[sp].[cEt](G)[sp].[moe](C)}$$$$V2.0”: under “HepG2, 0.07 µM”, the target mRNA inhibition was 60% and 59%.
